From the supplement of paper PMC8671470

Columns and labels:
Conditions in all cases: 72 h
HL-60 [1] = experiment: cell viability (% survival relative to DMSO control, bortezomib = 0%); higher = less cytotoxic
Outline: (§1)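 Fifteen myeloid leukaemia cell lines were exposed to compounds at 1, 10, 100, 1000 or 10000 nM in 384-well plates for 72 h at 37 °C and 5% CO2. Viability was read by CellTiter-Glo luminescence and normalised, with vehicle as 100% and a 10 µM positive control as 0%. Values are percent survival averaged over duplicates.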

MV4-11 = experiment: as above
Outline: as §1

BV-173 = experiment: as above
Outline: as §1

KCL-22 = experiment: as above
Outline: as §1

MOLM-13 = experiment: as above
Outline: as §1

K-562 = experiment: as above
Outline: as §1

Mono-Mac-6 = experiment: as above
Outline: as §1

LAMA-84 = experiment: as above
Outline: as §1

KU-812 = experiment: as above
Outline: as §1

SHI-1 = experiment: as above
Outline: as §1

THP-1 = experiment: as above
Outline: as §1

ML-2 = experiment: as above
Outline: as §1

HEL = experiment: as above
Outline: as §1

KG-1 = experiment: as above
Outline: as §1

NOMO-1 [2] = experiment: as above
Outline: as §1

HL-60 [3] = experiment: cell viability (% survival relative to DMSO control); higher = less cytotoxic
Outline: (§2)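 Four-parameter log-logistic fits in drc and PharmacoGx supplied area under the curve where it is given. Underlying viability came from CellTiter-Glo, normalised to DMSO and proteasome-inhibitor wells, with the proteasome inhibitor at 10 μM. HL-60 cells in RPMI 1640 plus 10% FBS had been rescreened against the full library at five tenfold concentrations of 1–10,000 nM, in duplicate on 384-well plates, with DMSO or 100 nM of one of three metabolic inhibitors, for 72 h at 37 °C, 5% CO2.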

NOMO-1 [4] = system: NOMO-1
Outline: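 Fifteen myeloid leukaemia cell lines were seeded in RPMI 1640 at densities titrated to the linear growth range and placed in 384-well plates with acoustically pre-printed compounds at five tenfold doses from 1 to 10,000 nM, in duplicate. After 72 h at 37 °C with 5% CO2, luminescent ATP viability was normalised to vehicle and to a positive control at 10 µM, and curves were fitted with a four-parameter log-logistic model. The IC50 was obtained from these fits.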

HL-60 [5] = experiment: area under dose-response curve (viability, 1 nM-10 uM) (fraction (0-1)); higher = more sensitive
Outline: as §2

O=C(C(=O)c1ccc(Br)cc1)c1ccc(Br)cc1 [4,4'-Dibromobenzil]
Conditions | area under dose-response curve, co-treatment: AZD3965 100 nM | area under dose-response curve, co-treatment: DMSO vehicle | area under dose-response curve, co-treatment: GSK2194069 100 nM | area under dose-response curve, co-treatment: pictilisib 100 nM | cell viability, 1 nM [%] | cell viability, 10 nM [%] | cell viability, 100 nM [%] | cell viability, 1000 nM [%] | cell viability, 10000 nM [%]
BV-173 | – | – | – | – | 104 | 117 | 112 | 105 | 117
HEL | – | – | – | – | 96.7 | 96.8 | 120 | 114 | 115
HL-60 [1] | – | – | – | – | 91.8 | 99.6 | 93.4 | 98.1 | 88.5
HL-60 [5] | < 0.0301 | < 0.0301 | < 0.0301 | < 0.0301 | – | – | – | – | –
K-562 | – | – | – | – | 101 | 90.3 | 114 | 100 | 112
KCL-22 | – | – | – | – | 95.4 | 87.2 | 94.9 | 101 | 95.5
KG-1 | – | – | – | – | 95.5 | 98.6 | 101 | 100 | 91
KU-812 | – | – | – | – | 86.9 | 98.3 | 104 | 103 | 91.5
LAMA-84 | – | – | – | – | 98.8 | 101 | 109 | 106 | 96.9
ML-2 | – | – | – | – | 91.7 | 99.9 | 92.3 | 100 | 107
MOLM-13 | – | – | – | – | 87 | 83.8 | 80.4 | 87.5 | 93.8
MV4-11 | – | – | – | – | 101 | 92.1 | 107 | 85.3 | 89.3
Mono-Mac-6 | – | – | – | – | 109 | 101 | 94 | 109 | 97.9
NOMO-1 [2] | – | – | – | – | 95.6 | 110 | 99.8 | 104 | 96.2
SHI-1 | – | – | – | – | 92.4 | 101 | 90 | 103 | 98.4
THP-1 | – | – | – | – | 98.2 | 103 | 100 | 95 | 97.6

cell viability [%], HL-60 [3]
Conditions | 0.001 µM | 0.01 µM | 0.1 µM | 1 µM | 10 µM
co-treatment: AZD3965 100 nM | 105 | 105 | 99.5 | 94.7 | 102
co-treatment: DMSO vehicle | 102 | 100 | 99.8 | 96.7 | 101
co-treatment: GSK2194069 100 nM | 105 | 107.3 | 105.4 | 98.1 | 96.28
co-treatment: pictilisib 100 nM | 109 | 105 | 95.5 | 98.3 | 101.7

Conditions | IC50 (cell viability) [µM]
NOMO-1 [4] | > 10

COc1cc(C2Oc3cc(C4Oc5cc(O)cc(O)c5C(=O)C4O)ccc3OC2CO)ccc1O (stereo not given) [Silibinin]
Conditions | area under dose-response curve, co-treatment: AZD3965 100 nM | area under dose-response curve, co-treatment: DMSO vehicle | area under dose-response curve, co-treatment: GSK2194069 100 nM | area under dose-response curve, co-treatment: pictilisib 100 nM | cell viability, 1 nM [%] | cell viability, 10 nM [%] | cell viability, 100 nM [%] | cell viability, 1000 nM [%] | cell viability, 10000 nM [%]
BV-173 | – | – | – | – | 90.9 | 93.5 | 110 | 95.2 | 87.2
HEL | – | – | – | – | 101 | 100 | 115 | 89.2 | 103
HL-60 [1] | – | – | – | – | 91.9 | 92.9 | 96.9 | 105 | 104
HL-60 [5] | < 0.0301 | < 0.0301 | < 0.0301 | < 0.0301 | – | – | – | – | –
K-562 | – | – | – | – | 95 | 97.7 | 102 | 94.5 | 76.4
KCL-22 | – | – | – | – | 99.3 | 95.3 | 84.2 | 102 | 95.1
KG-1 | – | – | – | – | 91.3 | 104 | 99.2 | 94.3 | 93.8
KU-812 | – | – | – | – | 96.5 | 93.1 | 108 | 94.1 | 90.7
LAMA-84 | – | – | – | – | 98.1 | 102 | 110 | 95.6 | 95
ML-2 | – | – | – | – | 93 | 99.2 | 87.2 | 95.8 | 91.1
MOLM-13 | – | – | – | – | 99.8 | 103 | 103 | 106 | 103
MV4-11 | – | – | – | – | 100 | 95.7 | 97.2 | 110 | 98.8
Mono-Mac-6 | – | – | – | – | 96.4 | 91.2 | 94.1 | 99 | 98.9
NOMO-1 [2] | – | – | – | – | 95.3 | 96.4 | 99.8 | 101 | 99.7
SHI-1 | – | – | – | – | 102 | 107 | 89.3 | 98.6 | 105
THP-1 | – | – | – | – | 99.3 | 95.5 | 107 | 98.9 | 95.9

cell viability [%], HL-60 [3]
Conditions | 0.001 µM | 0.01 µM | 0.1 µM | 1 µM | 10 µM
co-treatment: AZD3965 100 nM | 107 | 99.1 | 107 | 102 | 102
co-treatment: DMSO vehicle | 100 | 100.8 | 104 | 102 | 97.72
co-treatment: GSK2194069 100 nM | 107 | 101 | 105 | 105 | 97.3
co-treatment: pictilisib 100 nM | 103 | 103 | 107 | 106 | 95.8

Conditions | IC50 (cell viability) [µM]
NOMO-1 [4] | > 10
